These results are taken from patent US7160874B2, “Phenylalanine derivatives” (Ajinomoto Co., Inc., priority 1999, dated 2007).

One experiment deals with T1, integrin α4β1 (Homo sapiens, UniProt P05556+P13612).
T1 construct: cell strain Jurkat (ATCC TIB-152) of human T cells, known to express integrin α4β1; host or cells: Jurkat (human T cell line)
In words: VCAM antagonist activity (VCAM-1/α4β1 binding assay). Format: cell-based. The conditions noted are these: Jurkat cells binding to VCAM-1; read-out: VCAM antagonistic activity (IC50) α4β1. In a few lines: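 Plates coated overnight at 4° C with recombinant human VCAM-1 (500 ng/ml, pH 9.6) and blocked. Calcein-AM-labelled Jurkat cells (α4β1) added with compound in HEPES/DMEM/0.1% BSA, 30 min at room temperature; unbound cells shaken off, bound fluorescence read at 485/535 nm. IC50 from binding relative to compound-free wells.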

Another experiment has as its target T2, integrin α4β7 (Homo sapiens, UniProt P13612+P26010).
T2 construct: lymphoma cell strain RPMI-8866 of human B cells, known to express integrin α4β7; endogenous in cells; host or cells: RPMI-8866 (human B lymphoma cell line)
T2 sequence (P13612 34-1032): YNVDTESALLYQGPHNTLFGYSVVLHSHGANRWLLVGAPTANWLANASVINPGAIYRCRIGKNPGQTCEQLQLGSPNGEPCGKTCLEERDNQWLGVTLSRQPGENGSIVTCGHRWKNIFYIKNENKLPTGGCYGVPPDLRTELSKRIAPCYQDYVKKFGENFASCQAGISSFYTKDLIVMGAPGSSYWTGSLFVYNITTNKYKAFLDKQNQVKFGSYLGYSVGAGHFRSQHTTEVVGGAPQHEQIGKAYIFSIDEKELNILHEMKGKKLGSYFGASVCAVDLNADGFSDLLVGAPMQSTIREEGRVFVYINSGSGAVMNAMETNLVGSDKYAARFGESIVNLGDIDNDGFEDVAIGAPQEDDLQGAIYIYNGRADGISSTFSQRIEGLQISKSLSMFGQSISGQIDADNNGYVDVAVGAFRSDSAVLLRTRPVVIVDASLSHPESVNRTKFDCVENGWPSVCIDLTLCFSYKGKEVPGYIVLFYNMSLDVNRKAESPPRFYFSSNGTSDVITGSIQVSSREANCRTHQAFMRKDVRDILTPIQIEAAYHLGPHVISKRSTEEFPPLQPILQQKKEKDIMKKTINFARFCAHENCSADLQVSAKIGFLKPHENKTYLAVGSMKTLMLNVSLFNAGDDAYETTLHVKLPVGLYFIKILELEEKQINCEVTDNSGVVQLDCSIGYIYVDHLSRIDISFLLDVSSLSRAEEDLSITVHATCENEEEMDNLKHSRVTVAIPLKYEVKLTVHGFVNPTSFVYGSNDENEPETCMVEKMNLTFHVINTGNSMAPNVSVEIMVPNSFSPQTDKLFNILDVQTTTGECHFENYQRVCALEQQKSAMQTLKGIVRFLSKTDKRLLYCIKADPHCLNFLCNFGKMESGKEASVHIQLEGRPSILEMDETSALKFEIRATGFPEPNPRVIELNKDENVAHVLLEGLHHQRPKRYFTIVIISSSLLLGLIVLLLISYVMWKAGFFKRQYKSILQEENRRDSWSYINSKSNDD
T2 sequence (P26010 20-798): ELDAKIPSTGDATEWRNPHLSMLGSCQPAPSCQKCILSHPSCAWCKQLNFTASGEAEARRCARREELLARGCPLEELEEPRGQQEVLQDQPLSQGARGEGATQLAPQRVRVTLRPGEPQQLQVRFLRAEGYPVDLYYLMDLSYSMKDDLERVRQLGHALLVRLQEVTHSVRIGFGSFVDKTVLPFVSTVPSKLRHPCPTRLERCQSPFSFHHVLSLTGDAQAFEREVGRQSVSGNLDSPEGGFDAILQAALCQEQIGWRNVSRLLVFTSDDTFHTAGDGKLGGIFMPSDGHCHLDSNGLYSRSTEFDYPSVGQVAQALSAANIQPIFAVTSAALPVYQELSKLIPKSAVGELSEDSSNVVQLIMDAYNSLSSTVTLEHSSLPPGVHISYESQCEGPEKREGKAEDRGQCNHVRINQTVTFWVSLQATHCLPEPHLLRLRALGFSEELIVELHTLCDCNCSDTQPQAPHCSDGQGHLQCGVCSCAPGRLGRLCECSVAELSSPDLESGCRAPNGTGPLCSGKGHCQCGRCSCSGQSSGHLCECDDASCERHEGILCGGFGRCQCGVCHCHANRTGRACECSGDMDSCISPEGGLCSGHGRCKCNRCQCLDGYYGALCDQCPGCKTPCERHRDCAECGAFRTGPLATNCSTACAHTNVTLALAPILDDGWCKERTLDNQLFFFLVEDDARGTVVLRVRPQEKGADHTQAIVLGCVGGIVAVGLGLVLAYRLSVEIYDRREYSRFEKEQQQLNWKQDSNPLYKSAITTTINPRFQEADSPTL
In words: VCAM antagonistic activity (VCAM-1/α4β7 binding assay). To be noted: RPMI-8866 cells binding to VCAM-1; read-out: VCAM antagonistic activity (IC50) α4β7. The experiment is classed as cell-based. The procedure, abridged:
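Calcein-AM-labelled human B-lymphoma RPMI-8866 cells bound to plate-coated recombinant human VCAM-1 in HEPES/DMEM/0.1% BSA with 4 mM MnCl2, with compound, 30 min at room temperature. Unbound cells removed by shaking; bound-cell fluorescence (ex 485/em 535 nm) versus compound-free wells gave IC50, binned.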

T1 sequence (P05556 21-798, one chain of several): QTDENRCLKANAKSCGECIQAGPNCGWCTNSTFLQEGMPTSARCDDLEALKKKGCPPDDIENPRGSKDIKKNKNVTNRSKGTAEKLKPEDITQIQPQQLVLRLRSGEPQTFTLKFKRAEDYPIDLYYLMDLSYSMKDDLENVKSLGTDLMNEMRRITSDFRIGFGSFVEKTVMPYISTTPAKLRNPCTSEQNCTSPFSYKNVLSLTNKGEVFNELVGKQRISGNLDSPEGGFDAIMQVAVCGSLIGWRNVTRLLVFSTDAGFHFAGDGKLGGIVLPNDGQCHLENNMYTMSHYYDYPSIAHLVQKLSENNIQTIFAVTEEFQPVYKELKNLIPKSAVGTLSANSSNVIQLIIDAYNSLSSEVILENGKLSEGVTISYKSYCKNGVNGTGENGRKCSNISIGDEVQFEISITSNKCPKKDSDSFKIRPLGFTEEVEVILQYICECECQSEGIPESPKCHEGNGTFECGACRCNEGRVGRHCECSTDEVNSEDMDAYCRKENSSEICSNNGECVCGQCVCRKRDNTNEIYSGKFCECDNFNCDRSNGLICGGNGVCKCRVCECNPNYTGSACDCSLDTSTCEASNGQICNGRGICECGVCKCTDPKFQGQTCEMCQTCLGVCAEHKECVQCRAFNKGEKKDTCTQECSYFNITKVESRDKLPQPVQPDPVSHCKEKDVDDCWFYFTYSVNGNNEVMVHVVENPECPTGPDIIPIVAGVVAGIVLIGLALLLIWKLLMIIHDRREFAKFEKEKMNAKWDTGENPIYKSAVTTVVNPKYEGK

On to `CCC(CC)(C(=O)N[C@@H](Cc1ccc(NC(=O)c2nc(NCc3ccc(OC)cc3)ncc2Cl)cc1)C(=O)O)C(=O)N1CCCC1` [Example 480, N-[2-(pyrrolidine-1-ylcarbonyl)-2-ethyl-butanoyl]-4-[({5-chloro-2-[(4-methoxybenzyl)amino]pyrimidine-4-yl}carbonyl)amino]-L-phenylalanine], for which the IC50 on integrin α4β1 was 20 to 100 nM; at integrin α4β7 it was less than 20 nM.
For `CCC(CC)(C(=O)N[C@@H](Cc1ccc(OCc2c(Cl)cccc2Cl)cc1)C(=O)O)C(=O)N1CC[C@@H](F)C1` [Example 84] the same measures were 100 to 2000 nM and less than 20 nM.
The matching figures for `CC(C)(C(=O)N[C@@H](Cc1ccc(OCc2c(Cl)cccc2Cl)cc1)C(=O)O)C(=O)N1CCCC1` [Example 33]: 100 to 2000 nM and 20 to 100 nM.
Regarding `CCC(CC)(C(=O)N[C@@H](Cc1ccc(-n2c(=O)c3ccccc3n(CC=Cc3ccccc3)c2=O)cc1)C(=O)O)C(=O)N1CCCC1` [Example 101], the IC50 at integrin α4β1 was in the range of 100 to 2000 nM; at integrin α4β7, 20 to 100 nM.
With `CCC(CC)(C(=O)N[C@@H](Cc1ccc(NC(=O)c2cc(F)c(F)cc2Cl)cc1)C(=O)O)C(=O)N1CCCC1` [Example 95], the IC50 on integrin α4β1 was 20 to 100 nM; at integrin α4β7, less than 20 nM.
For `CCC(CC)(C(=O)NC(Cc1ccc(OCc2c(Cl)cccc2Cl)cc1)C(=O)O)C(=O)N1CCCC1C(=O)OC` (centres unmarked) [Example 56] the same measures were 100 to 2000 nM and less than 20 nM.
For `O=CN1CCN(C(=O)C2(C(=O)N[C@@H](Cc3ccc(OCc4c(Cl)cccc4Cl)cc3)C(=O)O)CCC2)CC1` [Example 463] the same measures were 100 to 2000 nM and 100 to 2000 nM.
For `CCC(CC)(C(=O)N[C@@H](Cc1ccc(OCc2c(Cl)cccc2Cl)cc1)C(=O)O)C(=O)N1CC[C@@H](NC(C)=O)C1` [Example 54] the same measures were 20 to 100 nM and less than 20 nM.
Take `CCC(CC)(C(=O)N[C@@H](Cc1ccc(OCc2c(Cl)cccc2Cl)cc1)C(=O)O)C(=O)N1CC[C@@H](O)C1` [Example 35]: the values for the IC50 on integrin α4β1 and at integrin α4β7 were 20 to 100 nM and less than 20 nM, respectively.
The matching figures for `CN(C)C(=O)C1(C(=O)N[C@@H](Cc2ccc(OCc3c(Cl)cccc3Cl)cc2)C(=O)O)CC1` [Example 21]: 2000 to 10000 nM and 100 to 2000 nM.
Consider `CCC(CC)(C(=O)N[C@@H](Cc1ccc(OCc2c(Cl)cccc2Cl)cc1)C(=O)O)C(=O)N1CC[C@H](F)C1` [Example 80], for which the results for the concentration for half-maximal inhibition (IC50) on integrin α4β1 and at integrin α4β7 were 100 to 2000 nM and less than 20 nM, respectively.
In the case of `CCC(CC)(C(=O)N[C@@H](Cc1ccc(OCc2c(Cl)cccc2Cl)cc1)C(=O)O)C(=O)N1CCN(C=O)CC1` [Example 45], the half-maximal inhibitory concentration (IC50) was 100 to 2000 nM on integrin α4β1 and 20 to 100 nM at integrin α4β7.
Regarding `CCC(CC)(C(=O)NC(Cc1ccc(OCc2c(Cl)cccc2Cl)cc1)C(=O)O)C(=O)N1CCC(N)C1` (mixture of isomers) [Example 47], the concentration for half-maximal inhibition (IC50) was 100 to 2000 nM at integrin α4β1 and less than 20 nM on integrin α4β7.
In the case of `CCCNc1ncc(Cl)c(C(=O)Nc2ccc(C[C@H](NC(=O)C(CC)(CC)C(=O)N3CCCC3)C(=O)O)cc2)n1` [Example 483], the half-inhibitory concentration (IC50) at integrin α4β1 is 20 to 100 nM; on integrin α4β7 it was less than 20 nM.
The matching figures for `CSc1ncc(Cl)c(C(=O)Nc2ccc(C[C@H](NC(=O)C3(C(=O)N(C)C)CC3)C(=O)O)cc2)n1` [Example 85, N-[1-N,N-dimethylaminocarbonylcyclopropane-1-ylcarbonyl]-4-({[5-chloro-2-(methylthio)pyrimidine-4-yl]carbonyl}-amino)-L-phenylalanine]: 100 to 2000 nM and less than 20 nM.
For `CCC(CC)(C(=O)N[C@@H](Cc1ccc(OCc2c(Cl)cccc2Cl)cc1)C(=O)O)C(=O)N1CC[C@H](NC(C)=O)C1` [Example 55], the IC50 is 20 to 100 nM on integrin α4β1 and less than 20 nM at integrin α4β7.
For `CCC(CC)(C(=O)N[C@@H](Cc1ccc(OCc2c(Cl)cccc2Cl)cc1)C(=O)O)C(=O)N(C)CCN(C)C` [Example 40] the same measures were 100 to 2000 nM and 20 to 100 nM.
`CCC(CC)(C(=O)N[C@@H](Cc1ccc(OCc2c(Cl)cccc2Cl)cc1)C(=O)O)C(=O)N1CC[C@H](N)C1` [Example 66]: the IC50 on integrin α4β1 lay in the range of 100 to 2000 nM; at integrin α4β7 it was 20 to 100 nM.
The matching figures for `CN(C)C(=O)C1(C(=O)N[C@@H](Cc2ccc(OCc3c(Cl)cccc3Cl)cc2)C(=O)O)CCC1` [Example 29]: 100 to 2000 nM and 100 to 2000 nM.
With `O=C(O)[C@H](Cc1ccc(OCc2c(Cl)cccc2Cl)cc1)NC(=O)C1(C(=O)N2CCCC2)CCOCC1` [Example 58], the 50% inhibitory concentration (IC50) at integrin α4β1 and at integrin α4β7 was 100 to 2000 nM throughout.
As to `CCC(CC)(C(=O)N[C@@H](Cc1ccc(OCc2c(Cl)cccc2Cl)cc1)C(=O)O)C(=O)N1CC[C@@H](N)C1` [Example 76], the IC50 is 100 to 2000 nM at integrin α4β1 and less than 20 nM on integrin α4β7.
For `CCC(CC)(C(=O)N[C@@H](Cc1ccc(OCc2c(Cl)cccc2Cl)cc1)C(=O)O)C(=O)N1CCC(C(N)=O)CC1` [Example 39], the values for the IC50 on integrin α4β1 and at integrin α4β7 were 100 to 2000 nM and 20 to 100 nM, respectively.
`CCC(CC)(C(=O)N[C@@H](Cc1ccc(NC(=O)c2cc(OC)ccc2Br)cc1)C(=O)O)C(=O)N1CCCC1` [Example 99]: the IC50 at integrin α4β1 and on integrin α4β7 was 20 to 100 nM in each case.
Turning to `CCC(CC)(C(=O)N[C@@H](Cc1ccc(OCc2c(Cl)cccc2Cl)cc1)C(=O)O)C(=O)N1CCOCC1` [Example 34], the IC50 on integrin α4β1 was 100 to 2000 nM; at integrin α4β7, 20 to 100 nM.
Consider `CCC(CC)(C(=O)N[C@@H](Cc1ccc(OCc2c(Cl)cccc2Cl)cc1)C(=O)O)C(=O)N1CC[C@@H](NC(=O)C(F)(F)F)C1` [Example 63], for which the figures for the IC50 at integrin α4β1 and at integrin α4β7 were 100 to 2000 nM and 20 to 100 nM, respectively.
The matching figures for `CCC(CC)(C(=O)N[C@@H](Cc1ccc(OCc2c(Cl)cccc2Cl)cc1)C(=O)O)C(=O)N1CCCC1` [Example 32]: 100 to 2000 nM and 20 to 100 nM.
As to `CCC(CC)(C(=O)N[C@@H](Cc1ccc(OCc2c(Cl)cccc2Cl)cc1)C(=O)O)C(=O)N1C[C@@H](O)[C@H](O)C1` (relative stereo) [Example 83, N-(2-{[(trans-3,4-dihydroxypyrrolidine)-1-yl]carbonyl}-2-ethyl-butanoyl)-O-(2,6-dichlorobenzyl)-L-tyrosine], the IC50 at integrin α4β1 was 20 to 100 nM; on integrin α4β7 it was less than 20 nM.
The matching figures for `CCC(CC)(C(=O)NC(Cc1ccc(OCc2c(Cl)cccc2Cl)cc1)C(=O)O)C(=O)N1CCCCC1C(N)=O` (mixture of isomers) [Example 51]: 100 to 2000 nM and 20 to 100 nM.
